{
  "source": "paper PMC3403540",
  "about": "“Active Hydrophilic Components of the Medicinal Herb Salvia miltiorrhiza (Danshen) Potently Inhibit Organic Anion Transporters 1 (Slc22a6) and 3 (Slc22a8)” (Evidence-based Complementary and Alternative Medicine : eCAM, 2012)",
  "key": {"mOat3 [1]": {"target": "T1, mOat3 (Mus musculus, UniProt O88909)", "T1 construct": "expressed in transfected cells; host or cells: CHO (Chinese hamster ovary), stably transfected (CHO-mOat3)", "T1 sequence (O88909 1-537)": "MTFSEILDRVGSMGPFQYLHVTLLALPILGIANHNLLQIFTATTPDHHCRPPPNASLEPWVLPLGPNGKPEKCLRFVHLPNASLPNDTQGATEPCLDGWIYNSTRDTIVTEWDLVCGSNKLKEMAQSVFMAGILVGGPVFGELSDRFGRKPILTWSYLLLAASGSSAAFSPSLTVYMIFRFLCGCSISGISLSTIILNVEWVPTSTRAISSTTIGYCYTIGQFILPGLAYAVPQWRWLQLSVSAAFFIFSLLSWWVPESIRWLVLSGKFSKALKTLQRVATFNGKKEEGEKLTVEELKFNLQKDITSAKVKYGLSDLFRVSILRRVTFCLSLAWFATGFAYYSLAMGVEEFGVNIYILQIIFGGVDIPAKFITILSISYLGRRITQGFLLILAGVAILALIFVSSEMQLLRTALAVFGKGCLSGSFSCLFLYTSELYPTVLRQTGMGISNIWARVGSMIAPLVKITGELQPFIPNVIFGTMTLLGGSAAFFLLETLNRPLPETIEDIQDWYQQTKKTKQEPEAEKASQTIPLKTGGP", "parameters": "method as in PMID 18381565", "settings": "CHO-mOat3 cells, determined previously; cited from earlier work"}, "mOat1 [2]": {"target": "T2, mOat1 (Mus musculus, UniProt Q8VC69)", "T2 construct": "expressed in transfected cells; host or cells: CHO (Chinese hamster ovary), stably transfected (CHO-mOat1)", "T2 sequence (Q8VC69 1-545)": "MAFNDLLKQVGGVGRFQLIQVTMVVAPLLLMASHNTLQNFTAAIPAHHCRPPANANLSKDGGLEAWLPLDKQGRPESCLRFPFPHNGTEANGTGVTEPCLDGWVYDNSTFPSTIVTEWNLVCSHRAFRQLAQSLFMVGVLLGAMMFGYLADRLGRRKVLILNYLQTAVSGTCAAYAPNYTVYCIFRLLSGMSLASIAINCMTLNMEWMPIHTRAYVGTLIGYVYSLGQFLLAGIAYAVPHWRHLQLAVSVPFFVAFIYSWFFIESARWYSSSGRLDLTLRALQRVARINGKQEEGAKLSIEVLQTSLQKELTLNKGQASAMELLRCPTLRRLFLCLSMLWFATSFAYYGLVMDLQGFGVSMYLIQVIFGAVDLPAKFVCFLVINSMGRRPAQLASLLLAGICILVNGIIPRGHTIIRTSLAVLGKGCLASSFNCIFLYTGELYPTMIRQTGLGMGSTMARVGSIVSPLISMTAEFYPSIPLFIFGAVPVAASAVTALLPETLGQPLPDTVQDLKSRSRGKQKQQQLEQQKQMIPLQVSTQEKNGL", "test": "Inhibition of mOat1-mediated [3H]PAH uptake in CHO-mOat1 cells (cell accumulation assay)", "assay_type": "cell-based, murine", "settings": "read-out: inhibition of mOat1-mediated PAH uptake", "procedure": "(§1) Derivation of the stably transfected Chinese hamster ovary (CHO) cell lines expressing mOat1 (CHO-mOat1), mOat3 (CHO-mOat3), and the empty vector (FRT) transfected control cell line (CHO-FRT) was described previously.\nCell transport assay procedures were adapted from those previously published. In brief, 2 × 10^5 cells/well were seeded in 24-well tissue culture plates and grown in the absence of antibiotics for 48 hr. On the day of the experiment, cells were equilibrated with transport buffer for 10 min (500 μL of Hanks' balanced salt solution containing 10 mM HEPES, pH 7.4). […] After incubation, cells were immediately rinsed three times with ice-cold transport buffer, lysed, and analyzed via liquid scintillation counting. Uptake values were normalized to corresponding total protein content in cell lysates as determined by the Bradford method. Substrate accumulation is reported as picomoles of substrate per milligram protein. […] Kinetic calculations were performed using GraphPad Prism Software version 5.0 (GraphPad Software Inc., San Diego, CA, USA). Michaelis constant (K m) values were calculated by nonlinear regression using the Michaelis-Menten model. […] In this study, three curves were constructed (no inhibitor, plus two selected inhibitor concentrations) with uptake of substrate plotted as a function of its concentration for each condition. […] The parameter, α, can then be used to determine the mode of inhibition. When α is very large (α > 1), it indicates competitive inhibition. […] Results were confirmed by repeating all experiments at least three times with triplicate wells for each data point in every experiment.\nFigure 3 Michaelis-Menten kinetics of PAH transport in CHO-mOat1 cells. In order to calculate K i values for mOat1, the K m value for PAH needed to be determined in the CHO-mOat1 cell system. […] The corrected curve (closed circles) was obtained by subtracting the nonspecific background uptake as measured in the CHO-FRT cells from CHO-mOat1 accumulation to allow analysis of mOat1-mediated activity. Experiments were repeated three times in triplicate, and Michaelis constant (K m) values were calculated by nonlinear regression using the Michaelis-Menten model. […] Graph shown is from a representative experiment with values plotted as mean ± S.D. (n = 3).\n(§2) Figure 2 Inhibition profile of mOat1 and mOat3. […] (b) Inhibition of mOat3-mediated uptake of [^3H]ES (1 μM) by LSA, PCA, RMA, SAA, SAB, TSL, and probenecid (1000 μM) was measured in the CHO-mOat3 cells (10 min). […] Values are mean ± S.D. of triplicate values. ***denotes P < 0.001 as determined by one-way ANOVA followed by Dunnett's t-test.\nFigure 4 K i determination for LSA, RMA, and SAA in the CHO-mOat1 cell line. […] (5 μM) in CHO-mOat1 cells was measured in the presence of increasing concentrations (10^−7 to 5 × 10^−4 M) of LSA, RMA, and SAA. Data were corrected for nonspecific background measured in the CHO-FRT cells prior to kinetic analysis. K i values were determined with non-linear regression and the “one-site competition” model using GraphPad Prism software. Graphs shown are from representative experiments with values plotted as mean ± S.D. (n = 3)."}, "mOat3 [3]": {"target": "T1, mOat3", "test": "Inhibition of mOat3-mediated [3H]ES uptake in CHO-mOat3 cells (cell accumulation assay)", "assay_type": "cell-based, murine", "settings": "for inhibition at 1000 µM: read-out: inhibition of mOat3-mediated ES uptake", "procedure": "as §1\nCell transport assay procedures were adapted from those previously published. In brief, 2 × 10^5 cells/well were seeded in 24-well tissue culture plates and grown in the absence of antibiotics for 48 hr. On the day of the experiment, cells were equilibrated with transport buffer for 10 min (500 μL of Hanks' balanced salt solution containing 10 mM HEPES, pH 7.4). […] After incubation, cells were immediately rinsed three times with ice-cold transport buffer, lysed, and analyzed via liquid scintillation counting. Uptake values were normalized to corresponding total protein content in cell lysates as determined by the Bradford method. Substrate accumulation is reported as picomoles of substrate per milligram protein. […] Kinetic calculations were performed using GraphPad Prism Software version 5.0 (GraphPad Software Inc., San Diego, CA, USA). Michaelis constant (K m) values were calculated by nonlinear regression using the Michaelis-Menten model. Mode of inhibition was identified by using mixed model inhibition analysis as follows: (1) Vmax Apparent =Vmax/(1+[I]/(α×Ki)),Km Apparent=Km1+[I]/Ki/(1+[I]/(α×Ki)),Y=Vmax Apparent×x/Km Apparent+x, where V max, K i, and I represent the maximum transport velocity without inhibitor, the inhibition constant generated from the data set under analysis, and the concentration of inhibitor, respectively. In this study, three curves were constructed (no inhibitor, plus two selected inhibitor concentrations) with uptake of substrate plotted as a function of its concentration for each condition. […] The parameter, α, can then be used to determine the mode of inhibition. When α is very large (α > 1), it indicates competitive inhibition. Otherwise, it indicates noncompetitive inhibition (α = 1) or uncompetitive inhibition (0 < α < 1). To estimate K i values, IC50 values were calculated using nonlinear regression and inserted into the Cheng-Prusoff equation: K i = IC50/(1 + [Substrate]/K m). Results were confirmed by repeating all experiments at least three times with triplicate wells for each data point in every experiment.\nas §2, with “mOat3. […] (5 μM) by LSA, PCA, RMA, SAA, SAB, TSL, and probenecid (1000 μM) was measured in the CHO-mOat1 cells (10 min).” for “mOat3.”\nFigure 5 K i determination for LSA, RMA, and SAA in the CHO-mOat3 cell line. One minute uptake of [^3H]ES (1 μM) in CHO-mOat3 cells was measured in the presence of increasing concentrations (10^−7 to 4 × 10^−4 M) of LSA, RMA, and SAA. Data were corrected for nonspecific background measured in the CHO-FRT cells prior to kinetic analysis. K i values were determined with non-linear regression and the “one-site competition” model using GraphPad Prism software. Graphs shown are from representative experiments with values plotted as mean ± S.D. (n = 3)."}, "mOat1 [4]": {"target": "T2, mOat1", "parameters": "method as in PMID 21546538", "settings": "cited from earlier work"}, "mOat3 [5]": {"target": "T1, mOat3", "parameters": "method as in PMID 21546538", "settings": "cited from earlier work"}, "hOAT1": {"test_system": "hOAT1", "parameters": "method as in PMID 15870380", "settings": "cited from earlier work"}, "mOat3 [6]": {"target": "T1, mOat3", "parameters": "method as in PMID 19953504, PMID 17553798, PMID 18973812", "settings": "read-out: K i for mOat3; cited from earlier work"}, "[7]": {"settings": "rats; cited from earlier work"}, "[8]": {"settings": "1 mM (1000 μM) inhibitor, 1 μM [3H]ES, 10 min, CHO-mOat3 cells"}},
  "note": "Structures can show the parent of a compound that is named as a salt. Where two headings read alike, the source gives them in different places.",
  "data": [
    {"compound": "C[C@]12CC[C@@H]3c4ccc(OS(=O)(=O)O)cc4CC[C@H]3[C@@H]1CCC2=O", "note": "[ES, estrone sulfate]", "values": [
      {"measurement": "K m of ES on mOat3", "setting": "mOat3 [1]", "value": "12.2 ± 4.8", "unit": "µM"}
    ]},
    {"compound": "O=C(O)c1ccc(O)c(O)c1", "note": "[PCA, protocatechuic acid]", "values": [
      {"measurement": "inhibition at 1000 µM", "setting": "mOat1 [2]", "value": "> 95", "unit": "%"},
      {"measurement": "inhibition at 1000 µM", "setting": "mOat3 [3]", "value": "> 91", "unit": "%"}
    ]},
    {"compound": "COc1cccc2c1cc([N+](=O)[O-])c1c(C(=O)O)cc3c(c12)OCO3", "note": "[aristolochic acid]", "values": [
      {"measurement": "K m as substrate for mOat1", "setting": "mOat1 [4]", "value": 0.79, "unit": "µM"},
      {"measurement": "K m as substrate for mOat3", "setting": "mOat3 [5]", "value": 0.514, "unit": "µM"}
    ]},
    {"compound": "O=c1oc2c(O)c(O)cc3c(=O)oc4c(O)c(O)cc1c4c23", "note": "[ellagic acid]", "values": [
      {"measurement": "IC50", "setting": "hOAT1", "value": 207, "unit": "nM"}
    ]},
    {"compound": "CCCN(CCC)S(=O)(=O)c1ccc(C(=O)O)cc1", "note": "[probenecid, reference compound]", "values": [
      {"measurement": "Ki", "setting": "mOat3 [6]", "value": 4600, "unit": "nM"},
      {"measurement": "inhibition at 1000 µM", "setting": "mOat3 [3]; [8]", "value": "> 91", "unit": "%"}
    ]},
    {"compound": "salvianolic acid B [SAB]", "values": [
      {"measurement": "inhibition of mOat3-mediated ES uptake", "setting": "mOat3 [3]; [8]", "value": "approximately 53%"},
      {"measurement": "increase of AUC on spiking additional SAA into Danshen preparations", "setting": "[7]", "value": 82.4, "unit": "%"},
      {"measurement": "reduction of clearance on spiking additional SAA into Danshen preparations", "setting": "[7]", "value": 46.8, "unit": "%"}
    ]}
  ]
}
